Laboratory results published in PMC10647704 (Molecules, 2023).
≈ marks a conversion by molar mass, not a printed value. Read-outs that look alike come from different tables or passages of the source.

Legend:
[1] = test system: human epidermoid carcinoma cells KB-3-1; experiment: MTT cell viability assay in KB-3-1 cells; assay type: cell-based; details: for IC50: 24 h incubation, 48 h of treatment; for fungal selectivity (ratio of the IC50 in KB-3-1 cells to the IC50 in S1 cells): KB-3-1 vs C. albicans S1
Procedure: MTT assays were then performed to assess the effect of the test compounds on human epidermoid carcinoma cells KB-3-1 (24 h incubation).
The cell viability assay was performed in human epidermoid carcinoma cells KB-3-1. Initially, 5 × 10^3 cells were seeded into each well in a 96-well plate. […] After 48 h of treatment, 20 µL of MTT solution (5 mg/mL) was added to each well and allowed to incubate for 3.5 h. Subsequently, DMSO was added to each well upon removal of the MTT solution. The Abs570nm values were then measured using an accuSkanTM GO UV/VIS Microplate Spectrophotometer (Fisher Sci., Fair Lawn, NJ, USA).

[2] = target: yeast plasma membrane H+-ATPase (Pma1p) (Candida albicans, UniProt P28877); experiment: Medium acidification assay in C. albicans S1; assay type: cell-based; details: change in pH at 30 min, highest test concentration 30 µM, mean ± SEM of three experiments
Sequence of yeast plasma membrane H+-ATPase (Pma1p) (P28877 whole entry): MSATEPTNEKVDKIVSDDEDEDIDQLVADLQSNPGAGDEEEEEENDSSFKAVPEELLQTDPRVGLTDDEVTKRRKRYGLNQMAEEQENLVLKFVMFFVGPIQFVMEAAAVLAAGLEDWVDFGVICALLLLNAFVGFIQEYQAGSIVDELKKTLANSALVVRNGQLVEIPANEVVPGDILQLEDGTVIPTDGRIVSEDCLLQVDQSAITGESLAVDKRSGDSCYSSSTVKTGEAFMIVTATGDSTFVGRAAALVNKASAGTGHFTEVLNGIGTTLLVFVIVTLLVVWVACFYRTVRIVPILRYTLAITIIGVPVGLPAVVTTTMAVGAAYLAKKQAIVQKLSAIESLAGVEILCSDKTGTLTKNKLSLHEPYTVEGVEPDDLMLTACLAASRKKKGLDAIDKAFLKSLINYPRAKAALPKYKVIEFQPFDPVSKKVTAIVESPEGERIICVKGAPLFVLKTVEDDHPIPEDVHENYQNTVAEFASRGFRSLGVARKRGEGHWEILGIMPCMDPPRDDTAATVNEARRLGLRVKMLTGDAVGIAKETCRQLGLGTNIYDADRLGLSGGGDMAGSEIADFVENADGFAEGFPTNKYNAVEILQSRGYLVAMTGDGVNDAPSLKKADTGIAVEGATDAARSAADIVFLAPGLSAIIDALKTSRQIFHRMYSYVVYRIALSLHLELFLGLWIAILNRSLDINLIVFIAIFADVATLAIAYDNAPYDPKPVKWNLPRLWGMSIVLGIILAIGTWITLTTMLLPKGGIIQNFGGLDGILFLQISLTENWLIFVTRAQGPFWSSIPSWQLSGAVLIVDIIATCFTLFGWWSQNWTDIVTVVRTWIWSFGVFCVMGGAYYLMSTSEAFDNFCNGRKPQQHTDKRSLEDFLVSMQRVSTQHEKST

[3] = test system: C. albicans S1 (FLU-sensitive); experiment: Colorimetric resazurin assay (MIC) in C. albicans S1; assay type: cell-based; details: read-out: MIC, colorimetric assay
[4] = test system: C. albicans S1 (FLU-sensitive); experiment: Turbidity assay (MIC and IC50) in C. albicans S1; assay type: cell-based
[5] = test system: C. albicans S1; experiment: Mouse model of vulvovaginal candidiasis (VVC); details: for histopathology of vaginal tissue (H&E): day 6, infected and treated mice; for Log CFU/100 μL / Remaining C. albicans S1 Compared to Control (100%): vaginal lavage day 6, intravaginal once daily days 3-5, CHB 12.5 mg/kg, MICO 2% cream; for expression of MPO in vaginal tissue (IHC): day 6, compared to 6th day infected and vehicle groups; for PMN counts of vaginal tissues: day 6, compared to control and vehicle group; for gross markers of the health of the mice: intravaginal suspension, over the course of the study
[6] = target: Na+, K+-ATPase (purified from pig kidney outer medulla) (Sus scrofa, UniProt P05024); experiment: Na+,K+-ATPase activity assay; assay type: biochemical; details: test concentrations similar to the MIC concentrations; micromolar range; prevented by 5 mM GSH
[7] = test system: reconstructed human epidermis; experiment: In vitro skin irritation test on reconstructed human epidermal model (EpiDerm, OECD TG 439); assay type: cell-based
Procedure: The in vitro skin irritation test was performed using MatTek Corporation’s Reconstructed Human Epidermal Model EpiDerm™ following the manufacturer’s instructions, which fulfills the criteria set forth in the Organization for Economic Co-operation and Development.
Briefly, we applied either 30 µL of CHB4 or CHB6, PBS, 0.1% DMSO or 30 µL of 1% Triton-X100 (positive control for irritation). All plates were then incubated in a humidified environment for an additional 35 ± 1 min at 37 ± 1 °C, 5 ± 1% CO2, and 90% ± 10% relative humidity (RH). Once the 1 h incubation period was completed for the dosed tissues, all plates were removed from the incubator and placed in a sterile hood. The tissues were then rinsed 15 times with sterile PBS. The blotted tissue inserts were then incubated for 42 ± 2 h after which time the cell viability was determined using the MTT assay as described.

[8] = test system: breast cancer cell line MCF-7; design: method as in PMID 31683558; details: breast cancer cell line MCF-7 ref 23; cited from earlier work
[9] = Homo sapiens, KB 3-1, KB-3-1 cells, read-out: MTT Assay IC50 KB-3-1 Cells
[10] = Candida albicans, C. albicans S1, 24 h, resazurin
[11] = Candida albicans, C. albicans S1, 48 h, resazurin
[12] = Candida albicans, 24 h; read-out: MIC, turbidity assay
[13] = Candida albicans, 48 h; read-out: MIC, turbidity assay
[14] = Candida albicans; Abs600nm at 48 h; read-out: Turbidity Assay IC50 C. albicans S1
[15] = Homo sapiens, KB 3-1, read-out: MTT Assay IC50 KB-3-1 Cells, KB-3-1 cells
[16] = read-out: IC50MA (medium acidification)
[17] = Candida albicans, 24 h, read-out: MIC, turbidity assay
[18] = Candida albicans, 48 h, read-out: MIC, turbidity assay
[19] = Candida albicans, 48 h, read-out: Turbidity Assay IC50 C. albicans S1
[20] = KB-3-1 cells, read-out: MTT Assay IC50 KB-3-1 Cells
[21] = Abs600nm at 48 h; read-out: Turbidity Assay IC50 C. albicans S1
[22] = C. albicans S1, 24 h; for FLU the lowest concentration causing 70% decrease in turbidity; read-out: MIC, turbidity assay
[23] = C. albicans S1, 48 h; for FLU the lowest concentration causing 70% decrease in turbidity; read-out: MIC, turbidity assay
[24] = Candida albicans, 48 h, Abs600nm at 48 h; read-out: Turbidity Assay IC50 C. albicans S1

SMILES	IC50 [1, 9]	IC50 ([2]; IC50MA (medium acidification))	MIC [3, 10]	MIC [3, 11]	MIC [4, 12]	MIC [4, 13]	IC50 [4, 14]	histopathology of vaginal tissue (H&E) [5]	Log CFU/100 μL [5]	Remaining C. albicans S1 Compared to Control (100%) [5]	IC50 [1, 15]	inhibitory activity towards the Na+, K+-ATPase [6]	IC50 [2, 16]	MIC ([3]; Candida albicans, 24 h)	MIC ([3]; Candida albicans, 48 h)	MIC [4, 17]	MIC [4, 18]	IC50 [4, 19]	MIC [4, 22]	MIC [4, 23]	other results
C[C@H]1[C@H](n2[se]c3ccccc3c2=O)C[C@@H]2C[C@H]1C2(C)C [CHB2]	25.5 ± 1.9 µM	> 30 µM	12.5 µM (≈ 4.18 µg/mL)	12.5 µM (≈ 4.18 µg/mL)	12.5 µM (≈ 4.18 µg/mL)	12.5 µM (≈ 4.18 µg/mL)	7.6 ± 0.1 µM	–	–	–	–	–	–	–	–	–	–	–	–	–	–
Clc1ccc(COC(Cn2ccnc2)c2ccc(Cl)cc2Cl)c(Cl)c1 (centres unmarked) [Miconazole (MICO), miconazole, reference compound]	–	–	–	–	–	–	–	slight epithelial distress	4.470 Log CFU/100 μL	6.950%	–	–	–	–	–	–	–	–	–	–	–
C[C@@H]1[C@@H](n2[se]c3ccccc3c2=O)C[C@H]2C[C@@H]1C2(C)C [CHB1]	28.1 ± 1.5 µM	> 30 µM	12.5 µM (≈ 4.18 µg/mL)	6.3 µM (≈ 2.11 µg/mL)	12.5 µM (≈ 4.18 µg/mL)	12.5 µM (≈ 4.18 µg/mL)	7.3 ± 0.1 µM	–	–	–	–	–	–	–	–	–	–	–	–	–	–
C[C@H]1CC[C@@H]2[C@H]([C@@H]1n1[se]c3ccccc3c1=O)C2(C)C [CHB4]	–	–	–	–	–	–	–	slight epithelial distress	4.448 Log CFU/100 μL	6.607%	17.9 ± 3.1 µM	possess inhibitory activity	13.8 ± 1.1 µM	6.3 µM (≈ 2.11 µg/mL)	12.5 µM (≈ 4.18 µg/mL)	12.5 µM (≈ 4.18 µg/mL)	12.5 µM (≈ 4.18 µg/mL)	7.7 ± 0.1 µM	–	–	fungal selectivity (ratio of the IC50 in KB-3-1 cells to the IC50 in S1 cells) [1]: 2.3; expression of MPO in vaginal tissue (IHC) [5]: decrease; PMN counts of vaginal tissues [5]: less PMN counts compared to control and vehicle group; gross markers of the health of the mice [5]: without affecting any gross markers of the health of the mice; skin irritation ([7]; test concentrations up to 100 µM): no skin irritation
O=c1c2ccccc2[se]n1-c1ccccc1 [EB, Ebselen, reference compound]	89.7 µM	–	25 µM (≈ 6.85 µg/mL)	25 µM (≈ 6.85 µg/mL)	25 µM (≈ 6.85 µg/mL)	25 µM (≈ 6.85 µg/mL)	–	–	–	–	–	possess inhibitory activity	–	–	–	–	–	–	25.0 µM (≈ 6.85 µg/mL)	25.0 µM (≈ 6.85 µg/mL)	IC50 [1, 20]: 89.7 ± 3.42 µM; MIC ([3]; C. albicans S1, 24 h, resazurin): 25.0 µM (≈ 6.85 µg/mL); MIC ([3]; C. albicans S1, 48 h, resazurin): 25.0 µM (≈ 6.85 µg/mL); IC50 [4, 21]: 17.1 ± 1.01 µM; IC50 [4, 24]: ~17 µM
CC(C)[C@@H]1CC[C@@H](C)C[C@H]1n1[se]c2ccccc2c1=O [CHB6, (−)-N-(1R,2S,5R)-menthyl-1,2-benzizoselenazol-3(2H)-one]	–	–	–	–	–	–	–	slight epithelial distress	3.655 Log CFU/100 μL	1.064%	48.5 ± 5.9 µM	possess inhibitory activity	> 30 µM	3.1 µM (≈ 1.04 µg/mL)	3.1 µM (≈ 1.04 µg/mL)	3.1 µM (≈ 1.04 µg/mL)	3.1 µM (≈ 1.04 µg/mL)	1.8 ± 0.1 µM	–	–	IC50 [8]: 11.9 ± 0.2 µM; fungal selectivity (ratio of the IC50 in KB-3-1 cells to the IC50 in S1 cells) [1]: 26.9; expression of MPO in vaginal tissue (IHC) [5]: decrease; PMN counts of vaginal tissues [5]: less PMN counts compared to control and vehicle group; gross markers of the health of the mice [5]: without affecting any gross markers of the health of the mice; skin irritation ([7]; test concentrations up to 50 µM): no skin irritation
OC(Cn1cncn1)(Cn1cncn1)c1ccc(F)cc1F [FLU, fluconazole, reference compound]	> 1000 µM	–	–	–	25 µM (≈ 7.66 µg/mL)	25 µM (≈ 7.66 µg/mL)	–	–	–	–	–	–	> 30 µM	–	–	–	–	–	25.0 µM (≈ 7.66 µg/mL)	25.0 µM (≈ 7.66 µg/mL)	IC50 [4, 21]: 6.01 ± 0.1 µM; IC50 [4, 24]: ~6 µM
CC1(C)C2CCC(Cn3[se]c4ccccc4c3=O)C1C2 (single isomer, unassigned; (-)) [CHB3]	–	–	–	–	–	–	–	–	–	–	> 60 µM	–	> 30 µM	12.5 µM (≈ 4.18 µg/mL)	25 µM (≈ 8.36 µg/mL)	25 µM (≈ 8.36 µg/mL)	25 µM (≈ 8.36 µg/mL)	18.1 ± 0.2 µM	25.0 µM (≈ 8.36 µg/mL)	25.0 µM (≈ 8.36 µg/mL)	IC50 ([1]; read-out: MTT Assay IC50 KB-3-1 Cells, KB-3-1 cells): 65.7 ± 4.4 µM
C[C@@H]1C[C@H]2[C@@H](C[C@H]1n1[se]c3ccccc3c1=O)C2(C)C [CHB5]	> 90 µM	> 30 µM	12.5 µM (≈ 4.18 µg/mL)	25 µM (≈ 8.36 µg/mL)	25 µM (≈ 8.36 µg/mL)	12.5 µM (≈ 4.18 µg/mL)	7.5 ± 0.1 µM	–	–	–	–	–	–	–	–	–	–	–	–	–	IC50 [1, 20]: 94.1 ± 4.7 µM
